According to patent US9340543B2, “Helquat derivatives, preparation thereof, and use thereof as medicaments” (USTAV ORGANICKE CHEMIE A BIOCHEMIE AKADEMIE VED CR, V.V.I., priority 2013, dated 2016):

What was measured:
Type in all cases: cell-based
NHDF-Ad = experiment: CellTiter-Glo luminescent cell viability assay (ATP quantification), NHDF-Ad normal cells; conditions: normal human dermal fibroblasts, 72 h treatment
Source text: (§1) Influence of the test compounds on viability (proliferation) of cell lines used was investigated in concentration range 0-100 μmol·l^−1.
Normal human dermal fibroblasts were cultivated without antibiotics in basal medium for fibroblasts (ATCC/LGC Standards, cat. no. PCS-201-030) with added “Fibroblast Growth Kit-Low serum” (ATCC/LGC Standards, cat. no. PCS-201-041) containing 2% FBS, L-glutamine, hydrocortisone, ascorbic acid, rh FGF beta, rh insulin. When 90% confluency was reached the fibroblasts were washed with sterile PBS (5 ml) and dissociated by addition of 0.25% solution of trypsin/EDTA (2 ml; 2 min; 37° C.). After that 5 ml of cultivation medium for fibroblasts was added and the cells were centrifuged (180×g, 7 min), the cell pellet was resuspended, and transferred in the amount needed into a new cultivation bottle with fresh medium. The same cell release procedure was applied when the cells were to be used in experiments. The cells were used in experiments between the 3rd and the 15th passage after defreeezing. Population doubling time of NHDF-Ad cell line was 33 h under the cultivation conditions used.
(§2) In order to test the sensitivity of the cell lines towards the studied helquats, cytotoxity test for cell viability assessment based on ATP quantification in cell lysates was used (CellTiter-Glo® Luminescent Cell Viability Assay, Promega, cat. no. G7571). In this test, ATP in cell lysates is detected using luciferase reaction. Luminescence intensity correlates with the ATP level and thus with quantity of metabolically active (viable) cells. IC50 value serves as the output, that is the concentration of the test compound which leads to 50% reduction in number of viable cells as compared to control, untreated population. To this end, IC50 value reflects efficiency of the test compound with regard to the given cell line.
(§3) Cells in the exponential growth phase were seeded into a 96-well microtiter plate were plated at 3000 cells per well. Each well contained 90 μl of cell suspension. The next day, 10 μl of 10× concentrated test compound solutions were added. The effect of helquats was investigated in concentration range 1 to 100 μmol·l^−1 (e.g. 1; 2.5; 5; 7.5; 10; 15; 25; 50 and 100 μmol·l^−1). Apart from the section containing the concentration series of the test compound, each well contained 2 control columns, the first with pure medium (so called blank) and the second with cells in medium without the test compounds (control). Into wells containing controls and blanks, volume of solvent (water) equal to the volume of added compound solutions was added. After 72 h of incubation with the test compounds viability was determined according to the manufacturer's instructions. In short: microtiter well plate was left 30 min to reach the room temperature after it has been removed from the incubator. Then, into each well, 100 μl of the prepared detection agent was added. Next, the well plate was shaken for 2 min to complete the full lysis. Next, after the well had been left in the dark for 15 min, the luminescence was measured in each well using luminometer (Tecan Genios, Austria).
(§4) IC50 value represents concentration of the test compound, which leads to 50% reduction of viable cells (inhibition of cell growth) after 72 h of the treatment. Each helquat concentration was tested in triplicates in a IC50 quantification and at least 3 independent IC50 quantification experiments were performed. IC50 values over 100 μmol·l^−1 were obtained by extrapolation of data measured in concentration range 0-100 μmol·l^−1 for the given helquat.

MOLT-4 = experiment: CellTiter-Glo luminescent cell viability assay (ATP quantification), MOLT-4; conditions: acute lymfoblastic leukemia cells, 72 h treatment, viable cells by ATP luminescence
Experimental: as §1
(§5) Suspension cell line MOLT-4 is a permanent in vitro culture of acute lymfoblastic leukemia. Linie MOLT-4 cell line was cultivated in RPMI 1640 medium (Sigma-Aldrich, see above) with addition of 2 mmol glutamine (Invitrogen, see above), 10% fetal bovine serum (FBS, Sigma-Aldrich, see above), 100 IU/ml peniciline, 100 μg/ml streptomycine (Sigma-Aldrich, see above). Passaging was performed 2-3× a week. Population doubling time of MOLT-4 cell line was 25 h under the cultivation conditions used.
as §2, §3, §4

LoVo = experiment: CellTiter-Glo luminescent cell viability assay (ATP quantification), LoVo; conditions: colorectal carcinoma cells, 72 h treatment, viable cells by ATP luminescence, class symbols
Experimental: as §1
Adherent cell line LoVo is a permanent in vitro culture derived from tissue of a patient with colorectal carcinoma. LoVo cell line was cultivated in DMEM medium (Sigma-Aldrich, cat. no. D8437) with addition of 2 mmol·l^−1 glutamine (Invitrogen, see above), 10% fetal bovine serum (FBS, Sigma-Aldrich, see above), 100 IU/ml peniciline, 100 μg/ml streptomycine (Sigma-Aldrich, see above). Passaging was performed twice a week. After washing of cells with sterile PBS, the cells were released by 0.25% trypsin/EDTA (Sigma-Aldrich, see above) at 37° C. for 2 minutes. The trypsin was inactivated by addition of 2 volumes of complete medium, cells were then centrifuged (250×g, 5 min), resuspended, and transferred in the amount needed into a new cultivation bottle with fresh medium. Population doubling time of LoVo cell line was 39 h under the cultivation conditions used.
as §2, §3, §4

HeLa = experiment: CellTiter-Glo luminescent cell viability assay (ATP quantification), HeLa; conditions: cervical cancer cells, 72 h treatment, viable cells by ATP luminescence
Experimental: as §1
Adherent cell line HeLa is a permanent in vitro culture derived from cervical cancer. HeLa cell line was cultivated in RPMI 1640 medium (Dutch modification) (Sigma-Aldrich, cat. no. R7638) with addition of 2 mmol·l^−1 glutamine (Invitrogen, see above), 10% fetal bovine serum (FBS, Sigma-Aldrich, see above), 100 IU/ml peniciline, 100 μg/ml streptomycine (Sigma-Aldrich, see above). Passaging was performed twice a week. After washing of cells with sterile PBS the cells were released by 0.25% trypsin/EDTA (Sigma-Aldrich, cat. no. T4049) at 37° C. for 2 minutes. The trypsin was inactivated by addition of 2 volumes of complete medium, cells were then centrifuged (250×g, 5 min), the cell pellet was resuspended, and transferred in the amount needed into a new cultivation bottle with fresh medium. Population doubling time of […] cell line was 25 h under the cultivation conditions used.
as §2, §3, §4

HL-60 = experiment: CellTiter-Glo luminescent cell viability assay (ATP quantification), HL-60; conditions: acute promyelocytic leukemia cells, 72 h treatment, viable cells by ATP luminescence
Experimental: as §1
as §5, with “HL-60” for “MOLT-4”, “promyelocytic” for “lymfoblastic”, “HL-60” for “Linie MOLT-4”, “mmol·l^−1” for “mmol”, “23” for “25”
as §2, §3, §4

[1] = viable cells by ATP luminescence, class symbols

Row | IC50 (MOLT-4; Homo sapiens, MOLT-4) [µM] | IC50 (LoVo; Homo sapiens, LoVo) [µM] | IC50 (HeLa; Homo sapiens, HeLa) [µM] | IC50 (HL-60; Homo sapiens, HL-60) [µM] | IC50 (MOLT-4) [µM] | IC50 (LoVo) [µM] | IC50 (HeLa) [µM] | IC50 (HL-60) [µM] | Compound | IC50 (NHDF-Ad; Fibroblast, numeric bound, values over 100 obtained by extrapolation of data measured at 0-100 μmol·l−1) [µM] | IC50 (NHDF-Ad; [1]) [µM]
1 | 11 to 50 | 11 to 50 | 11 to 50 | 11 to 50 | – | – | – | – | COc1ccc(/C=C/c2cc[n+]3c(c2)-c2c(c(C)c(C)c4c2-c2c5ccccc5cc[n+]2CC4)CC3)cc1 [(M)-6, (M)-(E)-13-(4-methoxystyryl)-6,7-dimethyl-4,5,8,9-tetrahydroisoquinolino[1,2-a]pyrido[1,2-k][2,9]phenanthroline-3,10-diium trifluoromethanesulfonate] | > 150 | –
2 | – | – | – | – | < 10 | 11 to 50 | < 10 | < 10 | COc1ccc2cc(/C=C/c3cc[n+]4c(c3)-c3c(c(C)c(C)c5c3-c3c6ccccc6cc[n+]3CC5)CC4)ccc2c1 [(M)-7, (M)-(E)-13-(2-(6-methoxynaphthalene-2-yl)vinyl)-6,7-dimethyl-4,5,8,9-tetrahydroisoquinolino[1,2-a]pyrido[1,2-k][2,9]phenanthroline-3,10-diium trifluoromethanesulfonate] | – | 51 to 150
3 | – | – | – | – | < 10 | 11 to 50 | < 10 | < 10 | Cc1c(C)c2c(c3c1CC[n+]1ccc(/C=C/c4ccc(N(C)C)cc4)cc1-3)-c1c3ccccc3cc[n+]1CC2 [(M)-1, (M)-(E)-13-(4-(dimethylamino)styryl)-6,7-dimethyl-4,5,8,9-tetrahydroiso-quinolino[1,2-a]pyrido[1,2-k][2,9]phenanthroline-3,10-diium trifluoromethanesulfonate] | – | 51 to 150
